These are literature values, as cited in paper PMC12737490, “Beta Toxins Isolated from the Scorpion Centruroides hirsutipalpus (Scorpiones; Buthidae) Affect the Function of Sodium Channels of Mammals” (Toxins, 2025).

The test system of data set [1] is Nav1.2. The conditions noted are these: ref [34]; cited from earlier work. The source says: (§1) The Chirp9 peptide in the venom of C. hirsutipalpus has an abundance of 2.8%. It has an experimental mass of 7790.1 Da and a theoretical mass of 7790.9 Da. The sequence of Chirp9 (Figure 3B) shares 97% identity with the Cl13 toxin from the C. limpidus scorpion (UniProt C0HK69) and differs by only two amino acid substitutions: L5I and Q54A. These substitutions could modulate the toxic properties of the venom through structural alterations in the peptide that influence its interaction with target sites, possibly leading to increased potency or stability. The Cl13 toxin is found in C. limpidus ve ...

The subject of data set [2] is Nav1.4. The conditions noted are these: ref [34]; cited from earlier work.
Excerpt: as §1

The test system of data set [3] is Nav1.5. Particulars: ref [34]; cited from earlier work.
Excerpt: as §1

Data set [4] relates to Nav1.6. The conditions noted are these: ref [34]; cited from earlier work.
Excerpt: as §1

The test system of data set [5] is sodium channel. The conditions noted are these: stated as reported earlier; no reference in the sentence; cited from earlier work.
The test system of data set [6] is hNav1.6 channel. Particulars: ref [13]; cited from earlier work. The source says:
When comparing the sequence of the new toxins β-NaScTxs from C. hirsutipalpus with sequences from different scorpions (Figure 3A) using BLASTp version 2.11.0, it is shown that the sequence of the toxin Chirp7 is 100% identical to the sodium toxin Ct1a (UniProt accession P18926) from the C. tecomanus scorpion.

With “Cl13: beta toxin from the C. limpidus scorpion, 97% identity with Chirp9”, the “effect on sodium currents” value in data set [1], in data set [2], in data set [3] and in data set [4] was “modifies sodium currents” throughout. Further, the “effect on sodium channel inactivation kinetics” value in data set [5] is given as “slow down the kinetics of sodium channel inactivation”.

As for “Ct1a: sodium toxin Ct1a from the C. tecomanus scorpion, sequence 100% identical to Chirp7”, the “effect on hNav1.6 channel” value in data set [6] was “altering channel activation by lowering the action potential and decreasing the current amplitude”.
